What was measured:
Kv1.3 potassium channel = target: T1, Kv1.3 potassium channel (Homo sapiens, UniProt P22001); test: Kv1.3 potassium channel blocker activity, automated whole-cell patch clamp (Patchliner) in CHO-K1 cells stably expressing Kv1.3; type: cell-based; conditions: CHO-K1 cells stably expressing Kv1.3; patch clamp, current inhibition; read-out: Kv1.3 IC50
T1 construct: expressed in transfected cells
In short: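 CHO-K1 cells stably expressing Kv1.3 were recorded by whole-cell patch clamp, with 100 ms depolarizing pulses from −90 mV holding to +40 mV at 0.1 Hz and 10-second breaks between pulse trains. P/4 online leak subtraction was applied. Compound incubation before the next train was ≤10 seconds, and peak current inhibition was read during equilibration.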

hERG channel = hERG channel (Homo sapiens, UniProt Q12809); test: hERG electrophysiology, automated whole-cell patch clamp (Patchliner) in CHO-K1 cells stably expressing hERG
Sequence of hERG channel (Q12809 whole entry): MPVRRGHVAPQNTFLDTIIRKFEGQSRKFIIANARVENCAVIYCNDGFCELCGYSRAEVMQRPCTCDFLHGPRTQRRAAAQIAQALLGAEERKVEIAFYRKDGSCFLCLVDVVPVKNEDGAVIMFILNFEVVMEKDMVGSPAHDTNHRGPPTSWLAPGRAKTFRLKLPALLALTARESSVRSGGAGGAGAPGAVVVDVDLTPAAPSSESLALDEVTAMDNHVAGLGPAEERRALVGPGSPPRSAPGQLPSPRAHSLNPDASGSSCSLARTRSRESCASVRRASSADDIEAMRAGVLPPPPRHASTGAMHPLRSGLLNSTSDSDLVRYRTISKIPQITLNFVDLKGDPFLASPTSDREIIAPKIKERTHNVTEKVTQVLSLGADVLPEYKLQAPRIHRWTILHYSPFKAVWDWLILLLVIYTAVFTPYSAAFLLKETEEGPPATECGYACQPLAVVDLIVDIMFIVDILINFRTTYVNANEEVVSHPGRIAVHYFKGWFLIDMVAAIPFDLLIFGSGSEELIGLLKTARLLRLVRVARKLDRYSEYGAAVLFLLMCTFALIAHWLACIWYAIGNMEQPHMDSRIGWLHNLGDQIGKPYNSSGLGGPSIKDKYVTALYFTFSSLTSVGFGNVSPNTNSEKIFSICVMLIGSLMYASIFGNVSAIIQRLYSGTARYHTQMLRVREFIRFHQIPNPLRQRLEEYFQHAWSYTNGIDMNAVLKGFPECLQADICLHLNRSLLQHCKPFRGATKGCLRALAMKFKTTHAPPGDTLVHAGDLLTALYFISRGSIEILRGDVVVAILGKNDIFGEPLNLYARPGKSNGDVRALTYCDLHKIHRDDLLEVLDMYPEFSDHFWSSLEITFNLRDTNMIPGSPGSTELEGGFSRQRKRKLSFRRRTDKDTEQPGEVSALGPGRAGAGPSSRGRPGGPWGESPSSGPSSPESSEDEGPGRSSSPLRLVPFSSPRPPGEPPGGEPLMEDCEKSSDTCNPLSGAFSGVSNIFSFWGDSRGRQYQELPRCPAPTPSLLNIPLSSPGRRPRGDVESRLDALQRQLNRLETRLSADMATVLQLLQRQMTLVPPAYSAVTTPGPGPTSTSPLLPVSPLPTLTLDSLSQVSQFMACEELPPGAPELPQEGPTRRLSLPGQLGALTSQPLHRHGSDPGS
Protocol: Evaluation of hERG Activities
This assay is used to evaluate the disclosed compounds's inhibition activities against the hERG channel.
CHO-K1 cells stably expressing hERG were grown in Ham's F-12 Medium with glutamine containing 10% heat-inactivated FBS, 1% penicillin/streptomycin, hygromycin (100 μg/ml) and G418 (100 μg/ml). Cells were grown in culture flasks at 37° C. in a 5% CO2-humidified incubator.
The cells were bathed in an extracellular solution containing 140 mM NaCl, 4 mM KCl, 2 mM CaCl2), 1 mM MgCl2, 5 mM Glucose, 10 mM HEPES; pH adjusted to 7.4 with NaOH; 295-305 mOsm. The internal solution contained 50 mM KCl, 10 mM NaCl, 60 mM KF, 20 mM EGTA, 10 mM HEPES; pH adjusted to 7.2 with KOH; 285 mOsm. All compounds were dissolved in DMSO at 30 mM. Compound stock solutions were freshly diluted with external solution to concentrations of 30 nM, 100 nM, 300 nM, 1 μM, 3 μM, 10 μM, 30 μM and 100 μM. The highest content of DMSO (0.3%) was present in 100 μM.
The voltage protocol (see Table B) was designed to simulate voltage changes during a cardiac action potential with a 300 ms depolarization to +20 mV (analogous to the plateau phase of the cardiac action potential), a repolarization for 300 ms to −50 mV (inducing a tail current) and a final step to the holding potential of −80 mV. The pulse frequency was 0.3 Hz. Control (compound-free) and compound pulse trains for each compound concentration applied contained 70 pulses.
Whole-cell current recordings and compound application were enabled by means of an automated patch clamp platform Patchliner (Nanion). EPC 10 patch clamp amplifier (HEKA) along with Patchmaster software (HEKA Elektronik Dr. Schulze GmbH) was used for data acquisition. Data were sampled at 10 kHz without filtering. Increasing compound concentrations were applied consecutively to the same cell without washouts in between.
AUC and PEAK values were obtained with Patchmaster (HEKA Elektronik Dr. Schulze GmbH). To determine IC50 the last single pulse in the pulse train corresponding to a given compound concentration was used. Obtained AUC and PEAK values in the presence of compound were normalized to control values in the absence of compound. Using Origin (OridinLab), IC50 was derived from data fit to Hill equation: Icompound/control=(100−A)/(1+([compound]/IC50)nH)+A, where IC50 is the concentration at which current inhibition is half-maximal, [compound] is the applied compound concentration, A is the fraction of current that is not blocked and nH is the Hill coefficient.

T1 sequence (P22001 whole entry): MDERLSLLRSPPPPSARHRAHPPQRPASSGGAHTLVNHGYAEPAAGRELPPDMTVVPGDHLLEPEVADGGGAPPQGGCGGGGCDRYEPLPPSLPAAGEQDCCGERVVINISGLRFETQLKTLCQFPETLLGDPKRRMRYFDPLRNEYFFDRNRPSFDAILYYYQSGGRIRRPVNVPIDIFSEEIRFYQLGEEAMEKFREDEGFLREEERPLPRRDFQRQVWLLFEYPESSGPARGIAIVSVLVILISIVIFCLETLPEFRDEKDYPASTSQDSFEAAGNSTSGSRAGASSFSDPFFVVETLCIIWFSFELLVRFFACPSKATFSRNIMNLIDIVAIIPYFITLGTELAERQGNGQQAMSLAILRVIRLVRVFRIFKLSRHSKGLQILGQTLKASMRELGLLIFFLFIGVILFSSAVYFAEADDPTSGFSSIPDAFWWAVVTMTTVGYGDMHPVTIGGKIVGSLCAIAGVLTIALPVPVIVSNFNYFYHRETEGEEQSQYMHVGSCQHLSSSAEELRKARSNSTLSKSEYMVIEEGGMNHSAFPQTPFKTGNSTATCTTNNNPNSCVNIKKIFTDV

IC50 (Kv1.3 potassium channel): < 10 µM
Compound: O=C(NC1CNC1)C1CCCC(c2c(O)ccc(Cl)c2Cl)N1 (centres unmarked) [Compound 127, N-(azetidin-3-yl)-6-(2,3-dichloro-6-hydroxyphenyl)piperidine-2-carboxamide]
IC50 (hERG channel): > 30 µM
